Data published in patent publication US4719214A, “Carbocyclic analogues of thymine nucleosides” (priority 1985, dated 1988).
≈ marks a conversion by molar mass, not a printed value. Where “and” joins values, the source holds several entries; their conditions need not be identical. Equal entries are not always repeated. Entries after “also recorded” stand apart in the source; their conditions may differ. Where two headings read alike, the source gives them in different places.

Columns and labels:
[1] = test system: Herpes Simplex Virus Type 1, Strain 377; experiment: Antiviral activity vs. herpes simplex virus type 1 replicating in Vero cells (virus-induced cytopathogenic effects); format: cell-based; conditions: for antiviral activity vs. HSV-1 (in words): HSV-1, Table 1 summary; for Virus rating (VR): 0.5-0.9 marginal to moderate, >=1 definite antiviral activity; for EC50: Human alphaherpesvirus 1, Vero, read-out: MIC50 (minimum inhibitory concentration, 50%)
Description: (§1) The MIC50 (minimum inhibitory concentration, 50%) is the concentration of a test compound required for 50% inhibition of virus-induced cytopathogenic effects.
(§2) ^a Antiviral evaluations were performed with HSV1 or HSV2 replicating

[2] = test system: Herpes Simplex Virus Type 2, Strain MS; experiment: Antiviral activity vs. herpes simplex virus type 2 replicating in Vero cells (virus-induced cytopathogenic effects); format: cell-based; conditions: for antiviral activity vs. HSV-2 (in words): HSV-2, Table 1 summary; for Virus rating (VR): 0.5-0.9 marginal to moderate, >=1 definite antiviral activity; for EC50: Human alphaherpesvirus 2, Vero, read-out: MIC50 (minimum inhibitory concentration, 50%)
Description: as §1, §2

[3] = test system: thymidine phosphorylase; conditions: isolated from human blood platelets; cited from earlier work
[4] = rats; cited from earlier work
[5] = HSV-1 strain 377, Vero cells, 50% inhibition of virus-induced cytopathogenic effects
[6] = HSV-2 strain MS, Vero cells, 50% inhibition of virus-induced cytopathogenic effects
[7] = listed as carbocyclic analogue of 5-ethynyl-2'-deoxyuridine

SMILES | antiviral activity vs. HSV-1 (in words) [1] | Virus rating (VR) ([1]; HSV-1 strain 377, Vero cells) | EC50 [1, 5] [µg/mL] | antiviral activity vs. HSV-2 (in words) [2] | Virus rating (VR) ([2]; HSV-2 strain MS, Vero cells) | EC50 [2, 6] [µg/mL] | EC50 [1] [µg/mL] | EC50 [2] [µg/mL] | substrate for thymidine phosphorylase [3] | other results
CCc1cn([C@@H]2C[C@H](CO)[C@@H](O)C2)c(=O)[nH]c1=O (relative stereo) [C-EDU, 5-Ethyl-1-[(1α,3β,4α)-3-Hydroxy-4-(hydroxymethyl)cyclopentyl]-2,4(1H,3H)-pyrimidinedione] | comparable to those of 9-β-D-arabinofuranosyladenine (Ara-A); also recorded: as active vs. HSV-1 as is the corresponding true nucleoside, 5-ethyl-2'-deoxyuridine (EDU); also recorded: inhibits the replication | 2.4 and 2.1 | 45 (≈ 177 µM) | comparable to those of 9-β-D-arabinofuranosyladenine (Ara-A); also recorded: definite and significant activity against HSV-2; also recorded: inhibits the replication | 1.1 | 227 (≈ 893 µM) |  |  |  | MIC50 (minimum inhibitory concentration, 50%) [1, 5]: 69 µg/mL (≈ 271 µM); MIC50 (minimum inhibitory concentration, 50%) [2, 6]: 178 µg/mL (≈ 700 µM)
C#Cc1cn([C@@H]2C[C@H](CO)[C@@H](O)C2)c(=O)[nH]c1=O (relative stereo) [Example 4, 1-[(1α,3β,4α)-3-Hydroxy-4-(hydroxymethyl)cyclopentyl]-5-ethynyl-2,4(1H,3H)-pyrimidinedione] | significant antiviral activity | 0.9 | 253 (≈ 1010 µM) | significant antiviral activity | 1.1 | 207 (≈ 827 µM) |  |  |  | antiviral activity vs. HSV-1 (in words) [1, 7]: significant, selective activity; antiviral activity vs. HSV-2 (in words) [2, 7]: significant, selective activity
C[Si](C)(C)CCc1cn([C@@H]2C[C@H](CO)[C@@H](O)C2)c(=O)[nH]c1=O (relative stereo) [Example 7, 1-[(1α,3β,4α)-3-Hydroxy-4-(hydroxymethyl)cyclopentyl]-5-[2-(trimethylsilyl)ethyl]-2,4(1H,3H)-pyrimidinedione] | antiviral activity | 0.5 |  |  |  |  | 320 (≈ 980 µM) |  |  | antiviral activity vs. HSV-1 (in words) ([1]; listed as carbocyclic analogue of 5-trimethylsilylethyl-2'-deoxyuridine): activity against HSV-1
Nc1ncnc2c1ncn2[C@@H]1O[C@H](CO)[C@@H](O)[C@@H]1O [Ara-A, 9-β-D-arabinofuranosyladenine, reference compound] |  | 2.0-2.1 |  |  | 1.3-1.7 |  | 15 to 19 (≈ 56.1 to 71.1 µM) | 22 to 45 (≈ 82.3 to 168 µM) |  | 
O=c1[nH]c(=O)n([C@H]2C[C@H](O)[C@@H](CO)O2)cc1/C=C/Br [BVDU, 5-[(E)-2-(bromovinyl)]-2'-deoxyuridine] |  |  |  |  |  |  |  |  | substrates for thymidine phosphorylase | 
CCc1cn([C@H]2C[C@H](O)[C@@H](CO)O2)c(=O)[nH]c1=O [EDU, 5-ethyl-2'-deoxyuridine, reference compound] |  | 2.3 |  |  | 2.2 |  | 19 (≈ 74.1 µM) | 321 (≈ 1250 µM) | substrates for thymidine phosphorylase | cleavage products identified as metabolites [4]: 5-ethyluracil and 5-(2-hydroxyethyl)uracil
